Test results taken from patent US6608047B2, “Use of low dosage amount of spironolactone for treatment of cardiovascular disease” (Pharmacia Corporation, priority 1995, dated 2003).

How the values were obtained:
plasma aldosterone = details: hypertensive patients; J. Staessen et al 1981; cited from earlier work
[1] = tested on: patients with symptomatic heart failure; experiment: Human clinical trial (spironolactone dose-ranging study): hyperkalemia, adverse events, hospitalizations, deaths
Excerpt: (§1) All statistical methods were two-sided.
In this analysis, the risk ratio can be thought of as the probability that the patient with the risk factor will develop hyperkalemia, relative to the probability that a patient without the risk factor will develop it.

myocardial fibrosis = details: cited from earlier work
[2] = tested on: patients with symptomatic heart failure; experiment: Human clinical trial (spironolactone dose-ranging study): cardiac assessments, weight and vital signs; type: in vivo
Excerpt: as §1

hypertensive-rat cohort = details: spironolactone sub-cutaneously; C.G. Brilla et al 1993; cited from earlier work
[3] = tested on: patients with symptomatic heart failure; experiment: Human clinical trial (spironolactone dose-ranging study): clinical laboratory values and neurohormones; details: for Creatinine, Week 12 Mean Change / Hematocrit, Week 12 Mean Change / Hemoglobin, Week 12 Mean Change / N-Terminal ANF, Week 12 Mean Change / PRA, Week 12 Mean Change / Potassium, Week 12 Mean Change / Sodium, Week 12 Mean Change / Urinary aldosterone, Week 12 Mean Change: Week 12 vs baseline

Compound: C[C@H](CS)C(=O)N1CCC[C@H]1C(=O)O [Captopril, captopril]
- Plasma aldosterone despite continued ACE inhibition (plasma aldosterone): gradual return of plasma aldosterone to baseline levels

Compound: CC(=O)S[C@@H]1CC2=CC(=O)CC[C@]2(C)[C@H]2CC[C@@]3(C)[C@@H](CC[C@@]34CCC(=O)O4)[C@H]12 [Spironolactone, 17-hydroxy-7α-mercapto-3-oxo-17α-pregn-4-ene-21-carboxylic acid γ-lactone acetate]
- Deaths during the drug treatment period ([1]; all dose groups, 12 weeks): No deaths were reported
- Hyperkalemia incidence, dose-response ([1]; human, in vivo): clear dose-response in term of incidence
- Patients died within 30 days after the study was completed ([1]; previously at the 50 mg dose): Three
- Myocardial fibrosis in animal models (myocardial fibrosis; D. Klug et al 1993): prevents myocardial fibrosis
- Fibrosis in animal models (myocardial fibrosis; irrespective of left ventricular hypertrophy and hypertension, C.G. Brilla et al 1993): prevent fibrosis
- Mean Change in Supine diastolic BP from Baseline to Week 12 ([2]; 12.5 mg/d): −0.19 (9.13)
- Mean Change in Supine pulse from Baseline to Week 12 ([2]; 12.5 mg/d): −3.70 (9.56) BPM
- Mean Change in Supine systolic BP from Baseline to Week 12 ([2]; 12.5 mg/d): 1.84 (11.82)
- Mean Change in Weight from Baseline to Week 12 ([2]; 12.5 mg/d): 0.59 (3.00)
- Mean systolic and diastolic blood pressure (standing and supine) ([2]; 25 mg, 50 mg and 75 mg groups, all visits): decreases in mean systolic and diastolic blood pressure
- Mean Change in Supine diastolic BP from Baseline to Week 12 ([2]; 25 mg/d): −2.74 (9.57)
- Mean Change in Supine pulse from Baseline to Week 12 ([2]; 25 mg/d): −1.40 (10.00) BPM
- Mean Change in Supine systolic BP from Baseline to Week 12 ([2]; 25 mg/d): −4.46 (13.97)
- Mean Change in Weight from Baseline to Week 12 ([2]; 25 mg/d): −0.16 (3.02)
- Mean Change in Supine diastolic BP from Baseline to Week 12 ([2]; 50 mg/d): −5.11 (11.11)
- Mean Change in Supine pulse from Baseline to Week 12 ([2]; 50 mg/d): −3.21 (11.27) BPM
- Mean Change in Supine systolic BP from Baseline to Week 12 ([2]; 50 mg/d): −7.04 (15.83)
- Mean Change in Weight from Baseline to Week 12 ([2]; 50 mg/d): 0.62 (2.05)
- Changes from baseline in body weight ([2]; 75 mg dose group, Day 9 and Week 4): more weight loss than other patients
- Mean Change in Supine diastolic BP from Baseline to Week 12 ([2]; 75 mg/d): −5.91 (9.05)
- Mean Change in Supine pulse from Baseline to Week 12 ([2]; 75 mg/d): −1.07 (13.79) BPM
- Mean Change in Supine systolic BP from Baseline to Week 12 ([2]; 75 mg/d): −5.68 (15.62)
- Mean Change in Weight from Baseline to Week 12 ([2]; 75 mg/d): −0.81 (2.70)
- Sodium retention score, dose response ([2]; Day 9 (p=0.019), not seen at later visits): more reduction in sodium retention score
- Pulse in the supine position, dose response ([2]; Week 4 (p-value=0.045)): greater decreases in pulse in the supine position at higher doses
- Changes in loop diuretic therapy ([2]; Week 8 (p=0.004), higher doses vs placebo, not observed at Week 12): decreases in the loop diuretic dose
- NYHA Class ([2]; spironolactone groups vs placebo, difference not statistically significant): trend toward improvement
- Fibrosis in the hypertensive-rat cohort (hypertensive-rat cohort): prevent fibrosis
- Creatinine, Week 12 Mean Change ([3]; 12.5 mg/d): 6.83 µmol/L
- Hematocrit, Week 12 Mean Change ([3]; 12.5 mg/d): 0.00%
- Hemoglobin, Week 12 Mean Change ([3]; 12.5 mg/d): 0.12 mmol/L/Fe
- N-Terminal ANF, Week 12 Mean Change ([3]; 12.5 mg/d): -287.30 pmol/L
- PRA, Week 12 Mean Change ([3]; 12.5 mg/d): 9.90 NgAngl/L/s
- Potassium, Week 12 Mean Change ([3]; 12.5 mg/d): 0.18 mmol/L
- Sodium, Week 12 Mean Change ([3]; 12.5 mg/d): -1.61 mmol/L
- Urinary aldosterone, Week 12 Mean Change ([3]; 12.5 mg/d): 4.21 nmol/D
- Creatinine, Week 12 Mean Change ([3]; 25 mg/d): 9.30 µmol/L
- Hematocrit, Week 12 Mean Change ([3]; 25 mg/d): −0.02%
- Hemoglobin, Week 12 Mean Change ([3]; 25 mg/d): −0.20 mmol/L/Fe
- N-Terminal ANF, Week 12 Mean Change ([3]; 25 mg/d): -294.60 pmol/L
- PRA, Week 12 Mean Change ([3]; 25 mg/d): 9.33 NgAngl/L/s
- Potassium, Week 12 Mean Change ([3]; 25 mg/d): 0.37 mmol/L
- Sodium, Week 12 Mean Change ([3]; 25 mg/d): -1.85 mmol/L
- Urinary aldosterone, Week 12 Mean Change ([3]; 25 mg/d): 4.27 nmol/D
- Creatinine, Week 12 Mean Change ([3]; 50 mg/d): 14.06 µmol/L
- Hematocrit, Week 12 Mean Change ([3]; 50 mg/d): −0.02%
- Hemoglobin, Week 12 Mean Change ([3]; 50 mg/d): −0.31 mmol/L/Fe
- N-Terminal ANF, Week 12 Mean Change ([3]; 50 mg/d): -351.30 pmol/L
- PRA, Week 12 Mean Change ([3]; 50 mg/d): 13.18 NgAngl/L/s
- Potassium, Week 12 Mean Change ([3]; 50 mg/d): 0.51 mmol/L
- Sodium, Week 12 Mean Change ([3]; 50 mg/d): -2.52 mmol/L
- Urinary aldosterone, Week 12 Mean Change ([3]; 50 mg/d): 8.11 nmol/D
- Creatinine, Week 12 Mean Change ([3]; 75 mg/d): 21.90 µmol/L
- Hematocrit, Week 12 Mean Change ([3]; 75 mg/d): −0.03%
- Hemoglobin, Week 12 Mean Change ([3]; 75 mg/d): −0.46 mmol/L/Fe
- N-Terminal ANF, Week 12 Mean Change ([3]; 75 mg/d): -370.60 pmol/L
- PRA, Week 12 Mean Change ([3]; 75 mg/d): 10.23 NgAngl/L/s
- Potassium, Week 12 Mean Change ([3]; 75 mg/d): 0.58 mmol/L
- Sodium, Week 12 Mean Change ([3]; 75 mg/d): -3.37 mmol/L
- Urinary aldosterone, Week 12 Mean Change ([3]; 75 mg/d): 11.13 nmol/D
- Change from baseline in PRA, dose-response ([3]; Day 9, Week 4 and Week 12, higher doses): greater increases in PRA
- N-Terminal Atrial Natriuretic Factor (ANF), change from baseline ([3]; all active treatments, all treatment visits): decreases from baseline
- Urinary aldosterone excretion, change from baseline ([3]; all treatment groups, 12 week visit): mean increases from baseline
- Change from baseline in serum potassium, dose-response ([3]; all treatment period visits, higher doses): larger increases in potassium
